These results are taken from patent US20250154150A1, “SUBSTITUTED FUSED RING COMPOUND, PHARMACEUTICAL COMPOSITION THEREOF, PREPARATION METHOD THEREFOR AND USES THEREOF” (SUZHOU YABAO PHARMACEUTICAL R&D CO., LTD., priority 2022, published 2025).

One assay concerns the target LRRK2 G2019S (Homo sapiens (Human), UniProt Q5S007, G2019S). In words: Kinase inhibition assay (ADP-Glo, LRRKtide substrate). In kind it is biochemical. Particulars: LRRK2 G2019S protein, room temperature. How it is done: Kinase LRRK2 G2019S protein was derived from Carna, LRRKtide was derived from Signalchem, ATP was derived from Promega, and DMSO was derived from Sigma.
All assays were performed at room temperature. The test compounds were dissolved and diluted, and then added to a 384-well plate. 2.5 μL of 2× kinase reaction buffer was added, and the mixture was centrifuged. 2.5 μL of a mixture of 2× substrate and ATP was added, and the mixture was centrifuged. 4 μL of ADP-Glo reagent was added, and the mixture was incubated at room temperature for 40 min. 8 μL of […] was added, and the mixture was incubated at room temperature for 40 min. Then, the data were read using the Envision 2104 multi-label Reader.

Assay [1] addresses LRRK2 (Homo sapiens (Human), UniProt Q5S007). In words: HEK293 cell kinase inhibition assay (NanoBRET). In kind it is cell-based. Particulars: HEK293 cells. How it is done: (§1) HEK293 cells were cultured, and collected by adding trypsin. Culture medium was added, and the cell density was adjusted to 2×10^5/mL. Liposome-DNA complexes were constructed and mixed with HEK293 cells at a ratio of 1:20. The mixture was added to a 384-well plate, and incubated at 37° C. for 20-30 h. A mixed solution of enzyme substrate and the test compound was added, and the mixture was incubated at room temperature for 2-3 min. NanoBRET reagent (Promega) was added, and bioluminescence was measured within 10 min using the microplate reader (Envision 2104) at 450 nm for the donor luciferase protein (donor) and 610 nm for the acceptor fluorescent group (acceptor). The BRET ratio for the test compounds was calculated using the following formula, including a background correction option.
(§2) [formula] • Acceptorsample: 610 nm fluorescence with the test compound; • Donorsample: 450 nm fluorescence with the test compound; • Acceptorno-tracer control: 610 nm fluorescence of background (without the test compound); • Donorno-tracer control: 450 nm fluorescence of background (without the test compound)
(§3) The inhibitory activity of the test compounds on cellular LRRK2 enzyme was calculated by the following formula: […]
(§4) The IC50 values of the test compounds against cellular LRRK2 enzyme were calculated using Graphpad software. Non-linear regression fitting (dose-effect−variable slope method) was performed on the percentage inhibition rate versus logarithmic concentration curve of the compounds.
(§5) [formula] • X: logarithmic inhibitor concentration; Y: percentage inhibition rate; Bottom: a minimum value; Top: a maximum value; Hill Slope: hill slope

The target of a further assay is LRRK2-2019S (Homo sapiens (Human), UniProt Q5S007, G2019S). In words: HEK293 cell kinase inhibition assay (NanoBRET). In kind it is cell-based. Particulars: HEK293 cells. How it is done: as §1, §2, §3, §4, §5
Another assay deals with LRRK2-R1441C (Homo sapiens (Human), UniProt Q5S007, R1441C). Nature of the assay: HEK293 cell kinase inhibition assay (NanoBRET). In kind it is cell-based. Particulars: HEK293 cells. The procedure: as §1, §2, §3, §4, §5
(In general: BRET reads energy transfer from a luciferase to a nearby fluorophore.)

Assay [2] relates to LRRK2. Nature of the assay: In vivo efficacy, oral administration: LRRK2 phosphorylation (pS935-LRRK2/LRRK2) in brain tissue by Western blot. Further details: species or system LRRK2-G2019S mice. An excerpt:
1. Objective: The study aims to determine the in vivo efficacy of compound 527 by observing the inhibition effect of compound 527 on the phosphorylation level of LRRK2 in the brains of G2019S mutant LRRK2 gene knock-in mice following oral administration.
(1) Animals: B6.Cg-Tg(Lrrk2*G2019S)2Yue/J transgenic mice were purchased from Jackson Laboratory. The mice were bred with C57BL/6J mice to produce LRRK2 heterozygote mice carrying the G2019S mutation (LRRK2-G2019S mice). The mice included an equal number of male and female individuals, with body weights ranging from 16-20 g and ages between 15-17 weeks.
(2) Grouping and administration: The mice were randomly divided into 5 experimental groups based on their body weights. Each group consisted of 8 animals, with 4 males and 4 females. The specific administration for each experimental group is detailed in the following Table 1. Group G1 served as the vehicle control group. For group G2 to group G5, compound 527 was administered at doses of 1 mg/kg, 3 mg/kg, 10 mg/kg, and 30 mg/kg, respectively.
(3) Intracerebral LRRK2 activity assay: One hour after administration, the animals were euthanized using CO2. The brain tissues were collected, rapidly frozen in liquid nitrogen, and then cryopreserved at −80 C until subsequent experiments. The brain tissues were homogenized in an RIPA buffer containing cOmplete™ protease inhibitor mixture (Roche, 04693124001) and phosphatase inhibitor mixture 2 (sigma, R^0278). Protein quantification was performed using the BCA method. The phosphorylation level of LRRK2 at pS935 site (primary antibody Anti-LRRK2 (phospho S935) antibody, abcam, ab133450), and the total LRRK2 level (primary antibody Anti-LRRK2 antibody, Abcam, ab33518) were detected by Western blot method. The activity level of LRRK2 in the brain was represented by the phosphorylation level at S935 site of LRRK2, i.e., the ratio of pS935-LRRK2 to total LRRK2 (pS935-LRRK2/LRRK2).
Background: In western blotting, separated proteins are transferred to a membrane and probed.

Setting [3] is: LRRK2-G2019S mice, oral gavage, single dose, brain collected 1 h after administration.

In general, IC50 refers to the midpoint of a concentration-inhibition curve.

Chain of LRRK2 G2019S (Q5S007 whole entry G2019S): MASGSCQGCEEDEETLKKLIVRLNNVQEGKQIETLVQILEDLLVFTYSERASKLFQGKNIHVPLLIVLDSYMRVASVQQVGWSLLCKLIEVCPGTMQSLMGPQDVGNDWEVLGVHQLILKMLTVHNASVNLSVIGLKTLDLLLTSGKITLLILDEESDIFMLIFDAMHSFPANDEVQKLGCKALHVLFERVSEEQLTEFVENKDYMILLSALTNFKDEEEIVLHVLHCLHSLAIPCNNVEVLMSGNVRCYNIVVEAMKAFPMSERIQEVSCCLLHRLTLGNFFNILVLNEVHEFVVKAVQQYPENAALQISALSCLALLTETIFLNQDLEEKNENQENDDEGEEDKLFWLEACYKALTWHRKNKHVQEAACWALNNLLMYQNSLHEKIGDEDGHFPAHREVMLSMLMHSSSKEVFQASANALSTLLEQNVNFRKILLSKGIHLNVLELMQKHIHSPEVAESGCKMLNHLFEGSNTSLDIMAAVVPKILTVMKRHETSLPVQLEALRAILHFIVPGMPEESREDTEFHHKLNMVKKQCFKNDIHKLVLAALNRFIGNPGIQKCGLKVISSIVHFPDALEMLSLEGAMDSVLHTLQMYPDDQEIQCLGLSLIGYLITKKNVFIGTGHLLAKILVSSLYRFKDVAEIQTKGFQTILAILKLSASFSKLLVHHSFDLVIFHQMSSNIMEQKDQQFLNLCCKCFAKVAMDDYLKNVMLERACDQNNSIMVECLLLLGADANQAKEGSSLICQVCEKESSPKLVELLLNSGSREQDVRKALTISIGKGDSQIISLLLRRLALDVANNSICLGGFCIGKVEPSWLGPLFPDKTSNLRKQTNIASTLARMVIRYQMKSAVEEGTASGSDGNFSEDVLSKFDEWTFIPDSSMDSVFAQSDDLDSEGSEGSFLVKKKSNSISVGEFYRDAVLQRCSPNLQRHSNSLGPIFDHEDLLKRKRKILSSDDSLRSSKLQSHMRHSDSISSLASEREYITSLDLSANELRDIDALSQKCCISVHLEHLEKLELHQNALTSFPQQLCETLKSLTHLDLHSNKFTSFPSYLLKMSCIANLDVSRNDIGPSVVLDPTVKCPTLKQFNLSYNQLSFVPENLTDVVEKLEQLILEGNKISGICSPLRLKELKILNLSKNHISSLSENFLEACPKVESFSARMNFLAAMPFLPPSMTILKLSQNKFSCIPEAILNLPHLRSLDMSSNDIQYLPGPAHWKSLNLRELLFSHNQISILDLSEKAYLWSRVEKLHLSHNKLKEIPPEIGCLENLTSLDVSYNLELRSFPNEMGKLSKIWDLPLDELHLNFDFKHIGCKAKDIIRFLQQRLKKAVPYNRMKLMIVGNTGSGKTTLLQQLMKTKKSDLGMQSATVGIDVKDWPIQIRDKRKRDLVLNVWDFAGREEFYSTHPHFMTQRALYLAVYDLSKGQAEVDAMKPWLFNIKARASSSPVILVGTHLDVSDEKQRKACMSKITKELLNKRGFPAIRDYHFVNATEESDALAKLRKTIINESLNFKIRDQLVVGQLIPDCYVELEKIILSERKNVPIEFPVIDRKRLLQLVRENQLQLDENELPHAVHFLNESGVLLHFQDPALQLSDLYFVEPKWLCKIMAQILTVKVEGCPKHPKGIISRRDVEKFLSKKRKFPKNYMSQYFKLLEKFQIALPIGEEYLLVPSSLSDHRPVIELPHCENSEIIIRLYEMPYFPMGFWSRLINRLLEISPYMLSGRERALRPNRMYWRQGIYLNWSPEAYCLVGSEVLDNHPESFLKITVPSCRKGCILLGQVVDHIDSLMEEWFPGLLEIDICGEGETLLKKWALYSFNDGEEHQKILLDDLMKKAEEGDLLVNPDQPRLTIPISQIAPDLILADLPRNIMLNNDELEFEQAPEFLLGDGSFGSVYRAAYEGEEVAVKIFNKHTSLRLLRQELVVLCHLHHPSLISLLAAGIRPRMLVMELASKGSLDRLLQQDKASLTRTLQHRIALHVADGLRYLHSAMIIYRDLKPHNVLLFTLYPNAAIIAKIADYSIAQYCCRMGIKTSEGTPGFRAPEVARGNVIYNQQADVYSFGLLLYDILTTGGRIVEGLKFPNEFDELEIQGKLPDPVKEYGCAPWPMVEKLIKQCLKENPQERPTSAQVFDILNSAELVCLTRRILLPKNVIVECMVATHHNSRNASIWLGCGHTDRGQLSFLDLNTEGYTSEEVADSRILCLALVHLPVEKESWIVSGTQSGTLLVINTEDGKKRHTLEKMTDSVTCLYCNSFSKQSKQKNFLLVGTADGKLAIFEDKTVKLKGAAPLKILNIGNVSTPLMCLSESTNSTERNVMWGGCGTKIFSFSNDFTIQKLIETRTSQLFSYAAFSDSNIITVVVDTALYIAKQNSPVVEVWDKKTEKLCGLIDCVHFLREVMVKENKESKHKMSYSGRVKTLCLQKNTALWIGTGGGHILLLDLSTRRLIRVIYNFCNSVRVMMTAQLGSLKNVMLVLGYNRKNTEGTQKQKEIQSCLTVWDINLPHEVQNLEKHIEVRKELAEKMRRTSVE
Chain of LRRK2-R1441C (Q5S007 whole entry R1441C): as the sequence (Q5S007 whole entry G2019S) above, with R1441C, S2019G counted along it
Chain of LRRK2 (Homo sapiens (Human), UniProt Q5S007) (Q5S007 whole entry): as the sequence (Q5S007 whole entry G2019S) above, with S2019G counted along it
Chain of LRRK2-2019S (Q5S007 whole entry G2019S): as the sequence (Q5S007 whole entry G2019S) above

`C[C@@H]1CN(c2cc(-c3n[nH]c4ccnc(NC5(C)CC5)c34)ncn2)C[C@H](C)O1` [Compound 391] returned an IC50 against LRRK2 G2019S of 9.5 nM.
The compound `C[C@@H]1C[C@H](Nc2nccc3[nH]nc(-c4cc(N5C[C@@H](C)O[C@@H](C)C5)ncn4)c23)C[C@H](C)O1` [Compound 407, 3-(6-((2S,6R)-2,6-dimethylmorpholinyl)pyrimidin-4-yl)-N-((2R,4R,6S)-2,6-dimethyltetrahydro-2H-pyran-4-yl)-1H-pyrazolo[4,3-c]pyridine-4-amine] showed an IC50 against LRRK2 G2019S of 2.2 nM.
As for `C[C@@H]1C[C@H](Nc2nccc3[nH]nc(-c4cc(N5C[C@@H]6C[C@H]5CO6)ncn4)c23)C[C@H](C)O1` [Compound 424], the IC50 on LRRK2 G2019S worked out at 3.7 nM.
Still for that read-out and setting: to `C[C@@H]1C[C@H](Nc2nccc3[nH]nc(-c4cc(N5C[C@H]6C[C@@H]5CO6)ncn4)c23)C[C@H](C)O1` [Compound 425] belongs 1.9 nM; to `C[C@@H]1C[C@@H](Nc2nccc3[nH]nc(-c4cc(N5C[C@H]6C[C@@H]5CO6)ncn4)c23)C[C@H](C)O1` [Compound 440], 36.5 nM.
For `C[C@@H]1CN(c2cc(-c3n[nH]c4ccnc(NCC(F)(F)F)c34)ncn2)C[C@H](C)O1` [Compound 447], the concentration for half-maximal inhibition (IC50) against LRRK2 G2019S was 2.8 nM; against LRRK2 [1], 247 nM; against LRRK2-2019S, 97.5 nM; on LRRK2-R1441C it was 297 nM.
In turn, `FC(F)(F)CNc1nccc2[nH]nc(-c3cc(N4C[C@@H]5C[C@H]4CO5)ncn3)c12` [Compound 486] registered an IC50 at LRRK2 G2019S of 3.1 nM.
Still for that read-out and setting: to `FC(F)(F)CNc1nccc2[nH]nc(-c3cc(N4C[C@H]5C[C@@H]4CO5)ncn3)c12` [Compound 487] belongs 2.4 nM; to `CC(C)n1cc(-c2n[nH]c3ccnc(NCC(F)(F)F)c23)cn1` [Compound 515], 27.7 nM; to `FC(F)(F)CNc1nccc2[nH]nc(-c3cc(N4C5CCC4COC5)ncn3)c12` [Compound 520], 4.8 nM.
With `N#CC1(c2cc(-c3n[nH]c4ccnc(NCC(F)(F)F)c34)ncn2)CCC1` [Compound 523, 1-(6-(4-((2,2,2-trifluoroethyl)amino)-1H-pyrazolo[4,3-c]pyridin-3-yl)pyrimidin-4-yl)cyclobutane-1-carbonitrile], the IC50 at LRRK2 G2019S was 2.4 nM.
`O[C@@H]1C[C@H](O)CN(c2cc(-c3n[nH]c4ccnc(NCC(F)(F)F)c34)ncn2)C1` [Compound 526, (3S,5R)-1-(6-(4-((2,2,2-trifluoroethyl)amino)-1H-pyrazolo[4,3-c]pyridin-3-yl)pyrimidin-4-yl)piperidine-3,5-diol]: the IC50 at LRRK2 G2019S turned out to be 5.1 nM.
Take `C[C@@H]1CN(c2cc(-c3n[nH]c4ccnc(N[C@H](C)C(F)(F)F)c34)ncn2)C[C@H](C)O1` [Compound 527]: the IC50 against LRRK2 G2019S was determined as 1.2 nM; against LRRK2 [1], 24.7 nM; against LRRK2-2019S, 16.3 nM; against LRRK2-R1441C it was 45.9 nM. For the same compound, in the assay with LRRK2 [2] (30 mg/kg oral gavage, 1 h, LRRK2-G2019S mice, stated as the definition of the maximum effective dose), the “inhibition of the phosphorylation of LRRK2 in the brain tissues” value was determined as 60%. The “effective dose for inhibiting the phosphorylation of LRRK2 in the brain tissues” value in the assay with LRRK2 [2] (setting [3]) is on record as 10 mg/kg. Also, the “maximum effective dose (defined as 60% inhibition of the phosphorylation of LRRK2)” value in the assay on LRRK2 [2] (setting [3]) came to 30 mg/kg. Further, in the assay on LRRK2 [2] (calculated for a body weight of 70 kg, from 10 mg/kg in mice), the “human equivalent dose corresponding to the effective dose” value was 57 mg. The “human equivalent dose corresponding to the maximum effective dose” value in the assay with LRRK2 [2] (calculated for a body weight of 70 kg, from 30 mg/kg in mice) is 171 mg.
Take `C[C@@H]1CN(c2cc(-c3n[nH]c4ccnc(N[C@@H](C)C(F)(F)F)c34)ncn2)C[C@H](C)O1` [Compound 528]: on LRRK2 G2019S, the IC50 was determined as 1.6 nM.
The compound `C[C@H]1CN(c2cc(-c3n[nH]c4ccnc(N[C@H](C)C(F)(F)F)c34)ncn2)C[C@H](C)O1` [Compound 561] gave an IC50 against LRRK2 G2019S of 1.3 nM.
On LRRK2 G2019S, `FC(F)(F)CNc1nccc2[nH]nc(-c3ccccn3)c12` [Control compound, reference compound] yielded a half-inhibitory concentration (IC50) of 12 nM.
